Source: patent publication US4256832A, “Carcinogen and mutagen screening method and apparatus” (BioResearch Inc., priority 1978, dated 1981)

How the values were obtained:
S. typhimurium TA 1535 = assay: Oxygen uptake of S. typhimurium TA 1535 cultures in minimal histidine medium, oxygen electrode (mutagen screening); format: cell-based, Salmonella typhimurium; details: flasks 3 and 4
From the text: In the device illustrated in FIG. 1, two conventional oxygen electrodes, 10, 11, of the Clark type are employed. […] Electrode 11, designated the test electrode, measures the respiration rate (O2 uptake) of the same fixed volume 13 and concentration of Ames test bacteria and media as the control electrode. In the second case, the media also contains the chemical to be evaluated. If the chemical is a carcinogen or mutagen, the O2 uptake of test electrode 11 will increase at a faster rate than that of the control. This occurs because the reversion rate, and thus the growth rate and O2 consumption rate will be higher in the test electrode 11 than in the control electrode 10. Conversely, if the chemical is not a carcinogen or a mutagen, the O2 uptake rates will be similar. Thus, by measuring the difference in O2 uptake rates between a control and a test electrode, the potential carcinogenicity and/or mutagenicity of a chemical can be evaluated. […]
The test organism, S. typhimurium TA 1535 is grown overnight, washed three times in phosphate buffer and resuspended to give OD of 0.8 (>10^8 per ml). […] At zero, four, and 32 hours, 1 ml of culture is added to 2 ml of aerated minimal glucose media in the test chamber of an oxygen electrode and the rate of oxygen uptake is measured.

S. typhimurium TA 1530 = details: cited from earlier work
Saccharomyces cerevsiae = details: cited from earlier work
[1] = tested on: oxidative phosphorylation; details: cited from earlier work; for uncoupling: higher concentrations than 10^-9 M; for stimulation of respiration and ATP production: low concentrations (10^-9 M)

SMILES: Nc1c2ccccc2nc2ccccc12 [9-amine acridine]
- oxygen uptake, dependence on mutagen level (S. typhimurium TA 1535): dependent upon the level of the added known mutagen

SMILES: O=C(O)[C@@H]1CCN1 [L-azetidine carboxylic acid]
- toxicity to mutant form (S. typhimurium TA 1530; mutant form of S. typhimurium TA 1530): not toxic to its mutant form
- toxicity to normal form (S. typhimurium TA 1530; normal form of S. typhimurium TA 1530): toxic to the normal form

SMILES: NC(N)=NOCC[C@H](N)C(=O)O.O=S(=O)(O)O [cavanine sulfate]
- toxicity to mutant form (Saccharomyces cerevsiae; mutant form of yeast): not to its mutant form
- toxicity to normal form (Saccharomyces cerevsiae; normal form of yeast): toxic to the normal form

SMILES: N[C@@H](Cc1cc(I)c(Oc2cc(I)c(O)c(I)c2)c(I)c1)C(=O)O [thyroxine]
- uncoupling [1]: uncouple at higher concentrations
- stimulation of respiration and ATP production [1]: stimulate respiration and ATP production

SMILES: N[C@@H](Cc1cc(I)c(Oc2ccc(O)c(I)c2)c(I)c1)C(=O)O [triiodothyronine]
- uncoupling [1]: uncouple at higher concentrations
- stimulation of respiration and ATP production [1]: stimulate respiration and ATP production
